Several values for one entry are separate records, joined by “and”; a condition that tells them apart may be missing. Equal values may be shown once. Entries after “also recorded” stand apart in the source; their conditions may differ.
Assays:
[1] = system: β-amyloid oligomers, profibrils, fibrils and plaque aggregates; test: SDS-PAGE analysis of dissociation of β-amyloid aggregates; format: biochemical
[2] = system: β-amyloid oligomers, profibrils, fibrils and plaques; test: Electron microscopic observation of β-amyloid aggregates; format: biochemical; conditions: electron microscopy
[3] = target: T1, β-amyloid (Homo sapiens, UniProt P05067); test: Plasma β-amyloid concentration before and after administration of EPPS, B−A by Equation 1; format: in vivo, APP/PS1 transgenic mice; design: tissue Jackson Laboratory (mice); host or cells: plasma / whole blood of female APP/PS1 transgenic mice; B-A (1 day) / B-A (5 days) / B-A (19 days) / B-A (33 days): unit not given here; conditions: for B-A (1 day): average of three measurements
T1 sequence (P05067 672-713 limits assumed): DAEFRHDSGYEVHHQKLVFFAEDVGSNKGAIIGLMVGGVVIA
Procedure: Female APP/PS1 transgenic mice were used as test animals. A total of 32 mice were used (eleven 5-6 month-olds and twenty-one 7.2-8.6 and 13 month-olds). 5-6-month-old mice were used since β-amyloid plaque accumulation in the brain begins from 5 months.
The transgenic APP/PS1 mouse model was B6C3-Tg(APPswe, PSEN1dE9)85Dbo/Mmjax purchased from the Jackson Laboratory (USA) and maintained and used for experiments under the guideline of the Animal Care and Use Committee.
EPPS was administered to each of the 32 mice at a dose of 1,000 mg/kg/day.
Blood was drawn from the of the retro-orbital venous plexus of the mouse using a microtube (Marienfeld, Germany) treated with 80 IU/mL heparin before and after the administration of EPPS. The blood drawing after the administration of EPPS was performed 1 day, 5 days, 19 days and 33 days after the administration of EPPS.
The blood was collected in an Eppendorf tube and centrifuged at 13,500 rpm and 4° C. for 5 minutes. Plasma separated from the cell fraction was collected in an Eppendorf tube for immediate use or for storage at −80° C. for later use.
β-Amyloid concentration in the plasma collected before and after the administration of EPPS was measured by detection units 1 and 2 of a kit. B−A was calculated by a calculation unit from the measured concentrations using [Equation 1].

[4] = target: T1, β-amyloid; test: β-amyloid concentration in plasma and whole blood treated with EPPS (APP/PS1 transgenic mouse); design: tissue Jackson Laboratory (mice); host or cells: plasma / whole blood of female APP/PS1 transgenic mice; conditions: 9-month-old APP/PS1 mice
Procedure: 9-month-old female APP/PS1 transgenic mice were used as test animals.
The transgenic APP/PS1 mouse model was B6C3-Tg(APPswe,PSEN1dE9)85Dbo/Mmjax purchased from the Jackson Laboratory (USA) and bred and used for experiments under the guideline of the Animal Care and Use Committee.
Sample treatment and β-amyloid concentration measurement were conducted in the same manner as in Example 1.

[5] = target: T1, β-amyloid; test: β-amyloid monomer concentration in plasma and whole blood treated with EPPS (APP/PS1/Tau transgenic mouse); design: tissue Jackson Laboratory (mice); host or cells: plasma / whole blood of 5-month-old female APP/PS1/Tau transgenic mice, treated ex vivo with EPPS; conditions: 5-month-old APP/PS1/Tau mice
From the text: 5-month-old female APP/PS1/Tau transgenic mice were used as test animals.
The transgenic APP/PS1/Tau mouse model was B6;129-Psen1tm1MpmTg(APPSwe,tauP301L)1Lfa/Mmjax purchased from the Jackson Laboratory (USA) and maintained and used for experiments under the guideline of the Animal Care and Use Committee.
Blood was collected in K2 EDTA-treated vacuum tube containing Roche Complete Mini (protease inhibitor) solution and centrifuged. Plasma separated from the cell fraction was collected in an Eppendorf tube and prepared into 0.1-mL samples, which were used immediately or stored at −80° C. for later use. Whole blood was collected in an Eppendorf tube by treating with EPPS and separating plasma from the cell fraction and prepared into 0.1-mL samples, which were used immediately for β-amyloid concentration measurement or stored at −80° C. for later use.
The plasma was treated with water (control group) or EPPS (EPPS group).
As for the EPPS group, 15 μL of the plasma was treated with 5 μL of 400 mM EPPS, so that the final EPPS concentration was 100 mM. As for the control group, 15 μL of plasma was treated with 5 μL of PBS, so that the concentration was the same as that of the EPPS group. […]
The whole blood was analyzed after treating with EPPS. […]
The β-amyloid concentration in each plasma was measured using detection units 1 and 2 and MB/MP was calculated by a calculation unit using [Equation 2].

[6] = Aged (7.2 months or older) female APP/PS1 mice, one value per mouse, EPPS 1,000 mg/kg/day, plasma β-amyloid after minus before
[7] = EPPS-treated whole blood / EPPS-treated plasma (Equation 2)
[8] = control plasma / EPPS-treated plasma (Equation 3)

O=S(=O)(O)CCCN1CCN(CCO)CC1 [EPPS, 4-(2-Hydroxyethyl)-1-piperazinepropanesulfonic acid]
Dissociation of β-amyloid aggregates (bands of Aβ 40 and Aβ 42 monomers, 4.3-4.5 kD) [1]: has the activity of dissociating β-amyloid oligomers, profibrils, fibrils and plaque aggregates; also recorded: has the activity of dissociating β-amyloid dimer, oligomer, profibril, fibril and plaque aggregates
Dissociation of β-amyloid aggregates by electron microscopic observation [2]: no β-amyloid aggregates are observed; also recorded: confirms the activity of dissociating β-amyloid dimers, oligomers, profibrils, fibrils and plaques
β-amyloid 42 concentration in plasma after administration (FIG. 3a) ([3]; 5-6-month-old (young) and 7.2-month-old (aged) mice, before vs 24 hours after): significant increase
β-amyloid 42 concentration in plasma, course over time (FIG. 3b) ([3]; 7.2-month-old (aged) mice, 1, 5, 19 and 33 days after administration): significant increase in β-amyloid 42 concentration followed by decrease
B−A value (sign) ([3]; 24 hours (1 day) after administration of EPPS, all the mice): positive (+)
B-A (5 days) [3, 6]: 93.531 and 163.986 and 51.584 and 76.049 and 170.979 and 86.122 and 108.916 and 311.820 and 134.965 and 170.656 and 207.692 and 55.115 and 209.711 and 88.441 and 105.420 and 130.096 and 118.007 and 70.105 and 185.315 and 66.259 and 214.549
B-A (19 days) [3, 6]: 298.504 and 52.809 and 70.596 and 86.108 and 129.025 and 57.487 and 53.294 and 43.826 and 101.221 and 82.444 and 136.814 and 131.569 and 88.695 and 61.725 and 27.070 and 32.708 and 22.406 and 20.515 and 59.409
B-A (33 days) [3, 6]: 114.33 and 23.509 and 148.154 and 21.599 and 71.410 and 4.797 and 24.240 and 11.079 and 42.621 and 31.969 and 60.179 and 39.237 and 23.448 and 33.902 and 41.596 and 59.545 and 31.762 and 51.292 and 78.101
B-A (1 day) [3, 6]: 78.802 and 41.434 and 20.276 and 12.442 and 15.385 and 7.373 (2×) and 182.867 and 10.138 and 13.364 and 11.060 and 4.147 and 140.559 and 16.129 and 194.580 and 18.894 and 6.119 and 345.979 and 19.816 and 156.294 and 180.594
B-A (1 day) ([3]; Young (5-6 months) female APP/PS1 mice, one value per mouse, EPPS 1,000 mg/kg/day, plasma β-amyloid after minus before): 52.151 and 22.674 and 98.547 and 20.430 and 191.398 and 124.731 and 108.065 and 102.326 and 89.535 and 94.186 and 146.802
B−A value, course over time ([3]; since 19 days after the administration of EPPS): began to decrease
MB/MP [4, 7]: 0.79
UP/MP [4, 8]: 0.99
MP Aβ concentration (monomer concentration in plasma of the EPPS group) ([4]; plasma treated with EPPS, average of three measurements): 151.58 ± 24.03
MB/MP [5, 7]: 0.61
UP/MP [5, 8]: 0.92

— patent US10006920B2, “Diagnostic kit for diagnosis of abnormal protein aggregation- or misfolding-related diseases using dissociation of protein aggregates” (KOREA INSTITUTE OF SCIENCE AND TECHNOLOGY, priority 2013, dated 2018)
